Test results published in PubChem BioAssay (NCI).
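These data come from cells grown in 96-well plates and exposed to compound for 48 hours at five concentrations. GI50 is the concentration that inhibits growth by half. Definition used: TGI = concentration required for complete inhibition of growth.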

Experiments:
Experiment in all cases: inhibition of tumour cell growth, NCI panel, 48 h
[1] = system: A549 NSCLC
[2] = system: MOLT-4 leukemia
[3] = system: HT29 colon
[4] = system: NCI/ADR-RES ovarian
[5] = system: UACC-257 melanoma
[6] = system: SK-OV-3 ovarian
[7] = system: SW-620 colon
[8] = system: MCF7 breast
[9] = system: UO-31 renal
[10] = system: T-47D breast
[11] = system: HCC-2998 colon
[12] = system: COLO 205 colon
[13] = system: HL-60(TB) leukemia
[14] = system: NCI-H460 lung
[15] = system: SK-MEL-5 melanoma
[16] = system: A498 renal
[17] = system: U251 CNS
[18] = system: EKVX NSCLC
[19] = system: UACC-62 melanoma
[20] = system: SNB-19 CNS
[21] = system: OVCAR-8 ovarian
[22] = system: NCI-H23 lung
[23] = system: HCT-116 colon
[24] = system: HCT-15 colon
[25] = system: HOP-92 NSCLC
[26] = system: SK-MEL-2 melanoma
[27] = system: SK-MEL-28 melanoma
[28] = system: NCI-H522 lung
[29] = system: OVCAR-4 ovarian
[30] = system: M14 melanoma
[31] = system: TK-10 renal
[32] = system: LOX IMVI melanoma
[33] = system: ACHN renal
[34] = system: MDA-MB-435
[35] = system: DU-145 prostate
[36] = system: SF-268 CNS
[37] = system: 786-0 renal
[38] = system: OVCAR-5 ovarian
[39] = system: SF-539 CNS
[40] = system: MDA-MB-231 breast
[41] = system: RXF 393 renal
[42] = system: K-562 leukemia
[43] = system: NCI-H226 lung
[44] = system: MALME-3M melanoma
[45] = system: SNB-75 CNS
[46] = system: HOP-62 NSCLC
[47] = system: PC-3 prostate
[48] = system: HS 578T breast
[49] = system: SN12C renal
[50] = system: BT-549 breast
[51] = system: RPMI-8226 leukemia
[52] = system: KM12 colon
[53] = system: CCRF-CEM leukemia
[54] = system: IGROV1 ovarian
[55] = system: CAKI-1 renal
[56] = system: OVCAR-3 ovarian
[57] = system: SF-295 CNS

CC1CCC(C(C)C2C(O)CC3C4CC=C5CC(O)CCC5(C)C4CCC32C)NC1 (stereo not drawn)
TGI [1]: > 100 µM
TGI [2]: 35.8 µM
TGI [3]: > 100 µM
TGI [4]: 58.2 µM
TGI [5]: > 100 µM
TGI [6]: > 100 µM
TGI [7]: > 100 µM
TGI [8]: > 100 µM
TGI [9]: > 100 µM
TGI [10]: > 100 µM
TGI [11]: 53.1 µM
TGI [12]: > 100 µM
TGI [13]: 52.8 µM
TGI [14]: > 100 µM
TGI [15]: > 100 µM
TGI [16]: > 100 µM
TGI [17]: 70.3 µM
TGI [18]: > 100 µM
TGI [19]: > 100 µM
TGI [20]: 74.5 µM
TGI [21]: 29.3 µM
TGI [22]: > 100 µM
TGI [23]: > 100 µM
TGI [24]: > 100 µM
TGI [25]: 69.8 µM
TGI [26]: > 100 µM
TGI [27]: > 100 µM
TGI [28]: > 100 µM
TGI [29]: 53.4 µM
TGI [30]: > 100 µM
TGI [31]: 30.4 µM
TGI [32]: 51 µM
TGI [33]: > 100 µM
TGI [34]: 65.8 µM
TGI [35]: > 100 µM
TGI [36]: > 100 µM
TGI [37]: 89.9 µM
TGI [38]: > 100 µM
TGI [39]: > 100 µM
TGI [40]: 81.6 µM
TGI [41]: > 100 µM
TGI [42]: > 100 µM
TGI [43]: > 100 µM
TGI [44]: 55.2 µM
TGI [45]: > 100 µM
TGI [46]: 66 µM
TGI [47]: 95.4 µM
TGI [48]: > 100 µM
TGI [49]: 47.2 µM
TGI [50]: > 100 µM

O=C1c2[nH]cc(CN3CCN(CCO)CC3)c2C(=O)c2c1c(O)c1ccccc1c2O
GI50 [1]: 7.15 µM
TGI [1]: 24.4 µM
GI50 [2]: 1.38 µM
TGI [2]: 9.48 µM
GI50 [3]: 12.3 µM
TGI [3]: 31.6 µM
GI50 [4]: 9.64 µM
TGI [4]: 28.3 µM
GI50 [5]: 8.33 µM
TGI [5]: 25.2 µM
GI50 [6]: 18.7 µM
TGI [6]: 37.5 µM
GI50 [7]: 1.68 µM
TGI [7]: 3.48 µM
GI50 [8]: 5.63 µM
TGI [8]: 21.9 µM
GI50 [9]: 3.82 µM
TGI [9]: 18.8 µM
GI50 [10]: 19.2 µM
TGI [10]: 38.6 µM
GI50 [11]: 6.51 µM
TGI [11]: 21.1 µM
GI50 [12]: 16.4 µM
TGI [12]: 47.4 µM
GI50 [13]: 2.83 µM
TGI [13]: 48.9 µM
GI50 [14]: 2.69 µM
TGI [14]: 12.3 µM
GI50 [51]: 1.52 µM
TGI [51]: 4.16 µM
GI50 [15]: 1.12 µM
TGI [15]: 3.27 µM
GI50 [52]: 1.62 µM
TGI [52]: 3.91 µM
GI50 [16]: 13.2 µM
TGI [16]: 27.8 µM
GI50 [17]: 5.31 µM
TGI [17]: 25.9 µM
GI50 [18]: 8.14 µM
TGI [18]: 22.5 µM
GI50 [19]: 4.53 µM
TGI [19]: 9.01 µM
GI50 [20]: 14.8 µM
TGI [20]: 32.5 µM
GI50 [21]: 5.52 µM
TGI [21]: 17.7 µM
GI50 [22]: 14.9 µM
TGI [22]: 39.4 µM
GI50 [53]: 1.63 µM
GI50 [23]: 1.76 µM
TGI [23]: 5.47 µM
GI50 [24]: 2.87 µM
TGI [24]: 18.6 µM
GI50 [25]: 1.14 µM
TGI [25]: 9.56 µM
GI50 [26]: 2.77 µM
TGI [26]: 8.06 µM
GI50 [54]: 1.61 µM
TGI [54]: 15.1 µM
GI50 [27]: 13.6 µM
TGI [27]: 28.7 µM
GI50 [28]: 2.08 µM
TGI [28]: 9.05 µM
GI50 [29]: 13.3 µM
TGI [29]: 29.4 µM
GI50 [30]: 1.69 µM
TGI [30]: 3.86 µM
GI50 [55]: 5.45 µM
TGI [55]: 14.2 µM
GI50 [31]: 0.36 µM
TGI [31]: 6.78 µM
GI50 [32]: 1.95 µM
TGI [32]: 6.34 µM
GI50 [33]: 5.38 µM
TGI [33]: 23.3 µM
GI50 [56]: 4 µM
TGI [56]: 16.3 µM
GI50 [34]: 1.84 µM
TGI [34]: 4.14 µM
GI50 [35]: 4.53 µM
TGI [35]: 18.2 µM
GI50 [36]: 5.9 µM
TGI [36]: 24.2 µM
GI50 [37]: 2.65 µM
TGI [37]: 11 µM
GI50 [38]: 16.5 µM
TGI [38]: 33 µM
GI50 [39]: 1.52 µM
TGI [39]: 3.11 µM
GI50 [40]: 4.89 µM
TGI [40]: 16.3 µM
GI50 [41]: 6.03 µM
TGI [41]: 22.9 µM
GI50 [42]: 2.17 µM
TGI [42]: > 100 µM
GI50 [43]: 10.5 µM
TGI [43]: 28.4 µM
GI50 [44]: 7.69 µM
TGI [44]: 24.9 µM
GI50 [45]: 14.2 µM
TGI [45]: 32.8 µM
GI50 [46]: 1.92 µM
TGI [46]: 15 µM
GI50 [57]: 2.56 µM
TGI [57]: 10.9 µM
GI50 [47]: 2.7 µM
TGI [47]: 8.78 µM
GI50 [48]: 8.14 µM
TGI [48]: 24.4 µM
GI50 [49]: 2.18 µM
TGI [49]: 9.92 µM
GI50 [50]: 13.8 µM
TGI [50]: 28.6 µM
